The values below come from patent publication US8927559B2, “Quinazolinone-type compounds as CRTH2 antagonists” (Merck Sharp & Dohme Corp., priority 2010, dated 2015).

“And” between values parts separate entries of the source, which are not always exact repeats. Equal values may be shown once. Read-outs that look alike come from different tables or passages of the source.

In the assay the target is T1, CRTH2 receptor (hCRTH2) (Homo sapiens, UniProt Q9Y5Y4).
T1 construct: expressed in transfected cells; host or cells: HEK cells (HEK-hCRTH2 cell line), membranes
T1 sequence (Q9Y5Y4 1-395): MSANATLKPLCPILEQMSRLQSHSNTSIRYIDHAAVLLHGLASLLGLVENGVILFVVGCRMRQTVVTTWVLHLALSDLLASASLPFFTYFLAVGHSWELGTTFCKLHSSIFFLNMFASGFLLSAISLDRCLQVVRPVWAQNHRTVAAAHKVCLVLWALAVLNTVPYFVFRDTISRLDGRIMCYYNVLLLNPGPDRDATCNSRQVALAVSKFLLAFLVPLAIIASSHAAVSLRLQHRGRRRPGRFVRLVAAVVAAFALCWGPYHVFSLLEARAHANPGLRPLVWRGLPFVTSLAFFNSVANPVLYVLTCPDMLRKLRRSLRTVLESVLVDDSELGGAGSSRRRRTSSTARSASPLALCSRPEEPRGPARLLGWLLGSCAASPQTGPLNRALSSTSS
Put plainly: Radioligand binding assay ([3H]PGD2 competition, membranes of HEK-hCRTH2 cell line). The note with it: 3.0 nM [3H]PGD2, HEK-hCRTH2 membranes, 60 min, room temperature. An outline of the steps:
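Membranes (8-20 μg protein) from HEK cells expressing human CRTH2 were incubated with [3H]PGD2 and competitor in 1% DMSO for 60 min at room temperature. Non-specific binding was defined with excess PGD2. Bound radioactivity was separated by filtration and counted by melt-on scintillation.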

With `CC(=O)N1CCC2(CC1)CC(c1ccc3c(=O)n(-c4ccc(Cl)cc4)c(CCCCC(=O)O)nc3c1)=NO2` [Example 15U], the Ki (read-out: Ki) lay in the range of 10 to 50 nM.
The same measure, in the same setting: the value for `O=C(O)CCCCc1nc2cc(-c3cc(CN4CCc5ccccc54)on3)ccc2c(=O)n1-c1ccc(F)cc1` [Example 106] was not above 10 nM; that for `Cc1cccc2nc(C3(C)CC(c4ccc5c(=O)n(-c6ccc(F)cc6)c(CCCCC(=O)O)nc5c4)=NO3)[nH]c12` (stereo not shown) [Example 195] was not above 10 nM.
Turning to `O=C(O)CCCCc1nc2cc(-c3cc(COCc4ccc(F)cc4F)on3)ccc2c(=O)n1-c1ccc(F)cc1` [Example 272], under “read-out: Ki”, the Ki was not above 10 nM.
`C[C@]1(C(=O)N[C@@H]2c3ccccc3C[C@@H]2O)CC(c2ccc3c(=O)n(-c4ccc(F)cc4)c(CCCCC(=O)O)nc3c2)=NO1` [Example 216]: the Ki (read-out: Ki) was in the range of 10 to 50 nM.
As for `CC1(C(=O)N2Cc3ccccc3C2)CC(c2ccc3c(=O)n(-c4ccc(F)cc4)c(CCCCC(=O)O)nc3c2)=NO1` (stereo not shown) [Example 199], the Ki (read-out: Ki) is not above 10 nM.
As for `C[C@]1([C@@H](O)c2ccccc2)CC(c2ccc3c(=O)n(-c4ccc(F)cc4)c(CCCCC(=O)O)nc3c2)=NO1` [Example 26D], the Ki (read-out: Ki) fell in the range of 10 to 50 nM.
Consider `O=C(O)CSc1nc2cc(-c3cscn3)ccc2c(=O)n1-c1ccc(F)cc1` [Example 1K], for which the inhibition constant Ki (read-out: Ki) fell in the range of 10 to 50 nM.
For the compound `O=C(O)CCCCc1nc2cc(C3=NOC4(C3)Cc3ccccc3C4)ccc2c(=O)n1-c1ccc(F)cc1` [Example 145], the Ki (read-out: Ki) was not above 10 nM.
`CC1(c2nc3cc(F)c(F)cc3[nH]2)CC(c2ccc3c(=O)n(-c4ccc(Cl)cc4)c(CCCCC(=O)O)nc3c2)=NO1` (stereo not shown) [Example 219]: where the note is “read-out: Ki”, the Ki was not above 10 nM.
Regarding `O=C(O)CCCCc1nc2cc(-c3cc(COCc4cccc5cccnc45)on3)ccc2c(=O)n1-c1ccc(F)cc1` [Example 283], under “read-out: Ki”, the Ki fell in the range of 10 to 50 nM.
`O=C(O)CCCCc1nc2cc(-c3cc(COCc4ccc(-c5ccccc5)cc4)on3)ccc2c(=O)n1-c1ccc(F)cc1` [Example 280]: the Ki (read-out: Ki) fell in the range of 10 to 50 nM.
`CC1(c2nc3ccccc3s2)CC(c2ccc3c(=O)n(-c4ccc(F)cc4)c(CCCCC(=O)O)nc3c2)=NO1` (stereo not shown) [Example 170] yielded a Ki (Ki) not above 10 nM.
Turning to `C[C@@]1(c2nc3cc(F)c(F)cc3[nH]2)CC(c2ccc3c(=O)n(-c4ccc(Cl)cc4)c(CCCCC(=O)O)nc3c2)=NO1` [Example 224], the Ki (read-out: Ki) was not above 10 nM.
On to `CC1(c2nc3cc(F)ccc3[nH]2)CC(c2ccc3c(=O)n(-c4ccc(Cl)cc4)c(CCCCC(=O)O)nc3c2)=NO1` (stereo not shown) [Example 205], for which the Ki (read-out: Ki) was not above 10 nM.
For `C[C@]1(c2cc3ccccn3n2)CC(c2ccc3c(=O)n(-c4ccc(F)cc4)c(CCCCC(=O)O)nc3c2)=NO1` [Example 202], for the setting “read-out: Ki”, the Ki is 10 to 50 nM.
Still for that read-out and setting: the value for `CC1(c2nc3cc(F)c(F)cc3[nH]2)CC(c2ccc3c(=O)n(-c4ccc(F)cc4)c(CCCCC(=O)O)nc3c2)=NO1` (stereo not shown) [Example 194] was not above 10 nM; that for `C=C(c1ccc(F)cc1)c1cc(-c2ccc3c(=O)n(-c4ccc(F)cc4)c(CCCCC(=O)O)nc3c2)no1` [Example 250] was not above 10 nM.
With `N#Cc1ccc(Cc2nc(-c3ccc4c(=O)n(-c5ccc(F)cc5)c(CCCCC(=O)O)nc4c3)no2)cc1` [Example 243], the Ki (read-out: Ki) fell in the range of 10 to 50 nM.
On the same count and under the same terms, for `O=C(O)CCCCc1nc2cc(-c3nc(Cc4ccc(F)cc4)no3)ccc2c(=O)n1-c1ccc(F)cc1` [Example 22C] the value was 10 to 50 nM; for `CC(c1ccccc1)C1(C)CC(c2ccc3c(=O)n(-c4ccc(F)cc4)c(CCCCC(=O)O)nc3c2)=NO1` (single isomer, unassigned) [Example 42E, 5-(3-(4-fluorophenyl)-7-(5-methyl-5-(1-phenylethyl)-4,5-dihydroisoxazol-3-yl)-4-oxo-3,4-dihydroquinazolin-2-yl)pentanoic acid], not above 10 nM; for `N#Cc1ccc(C2CC(c3ccc4c(=O)n(-c5ccc(F)cc5)c(CCCCC(=O)O)nc4c3)=NO2)cc1` (stereo not shown) [Example 15Q], not above 10 nM.
`CC1(c2ccc(F)cc2)CC(c2ccc3c(=O)n(-c4ccc(F)cc4)c(CCCCC(=O)O)nc3c2)=NO1` (stereo not shown) [Example 122] showed a Ki (Ki) not above 10 nM.
Take `C[C@@]1([C@H](O)c2cccc(C#N)c2)CC(c2ccc3c(=O)n(-c4ccc(F)cc4)c(CCCCC(=O)O)nc3c2)=NO1` [Example 136]: where the note is “read-out: Ki”, the Ki was not above 10 nM.
For the compound `C[C@@]1(C(=O)NCc2ccccc2)CC(c2ccc3c(=O)n(-c4ccc(F)cc4)c(CCCCC(=O)O)nc3c2)=NO1` [Example 234], for the setting “read-out: Ki”, the Ki lay in the range of 10 to 50 nM.
For the compound `O=C(O)CCCCc1nc2cc(C3=NOC4(CCCCC4)C3)ccc2c(=O)n1-c1ccc(Cl)cc1` [Example 15Y], the Ki (read-out: Ki) was not above 10 nM.
Consider `C[C@@]1(c2nc3cc(F)c(F)cc3[nH]2)CC(c2ccc3c(=O)n(-c4ccc(F)cc4)c(CCCCC(=O)O)nc3c2)=NO1` [Example 207], for which the Ki (read-out: Ki) was 10 to 50 nM and 17 nM.
`C[C@]1(c2nc3ccc(F)cc3[nH]2)CC(c2ccc3c(=O)n(-c4ccc(F)cc4)c(CCCCC(=O)O)nc3c2)=NO1` [Example 183]: the Ki (read-out: Ki) lay within 10 to 50 nM.
Take `O=C(O)CCCCc1nc2cc(-c3cc(CSc4ccc(F)cc4)on3)ccc2c(=O)n1-c1ccc(F)cc1` [Example 39F]: the Ki (read-out: Ki) was not above 10 nM.
On the same count and under the same terms, the value for `O=C(O)CCCCc1nc2cc(-c3cc(COCc4cccc(-c5ccccc5)c4)on3)ccc2c(=O)n1-c1ccc(F)cc1` [Example 281] was 10 to 50 nM; that for `COc1ccc2[nH]c(S(=O)(=O)Cc3cc(-c4ccc5c(=O)n(-c6ccc(F)cc6)c(CCCCC(=O)O)nc5c4)no3)nc2c1` [Example 39J] was not above 10 nM; that for `O=C(O)CCCCc1nc2cc(-c3cc(-c4ccc(Br)cc4)on3)ccc2c(=O)n1-c1ccc(F)cc1` [Example 157] was 10 to 50 nM.
Take `C[C@@](O)(c1ccc(F)cc1)c1cc(-c2ccc3c(=O)n(-c4ccc(F)cc4)c(CCCCC(=O)O)nc3c2)no1` [Example 258]: the Ki (read-out: Ki) was in the range of 10 to 50 nM.
`O=C(O)CCCCc1nc2cc(C3=NOC(c4ccccc4)(c4ccccc4)C3)ccc2c(=O)n1-c1ccc(F)cc1` [Example 117] came in with a Ki (Ki) of 10 to 50 nM.
As to `O=C(O)CCCCc1nc2cc(-c3cc(Cn4ccccc4=O)on3)ccc2c(=O)n1-c1ccc(F)cc1` [Example 107], the Ki (read-out: Ki) is not above 10 nM.
In the case of `O=C(O)CCCCc1nc2cc(-c3noc(C4CCCc5ccccc54)n3)ccc2c(=O)n1-c1ccc(F)cc1` (stereo not shown) [Example 244], the Ki (read-out: Ki) is not above 10 nM.
For `C[C@]1(c2nc3ccccc3[nH]2)CC(c2ccc3c(=O)n(-c4ccc(F)cc4)c(CCCCC(=O)O)nc3c2)=NO1` [Example 176], the Ki (read-out: Ki) was not above 10 nM.
On to `O=C(O)CCCCc1nc2cc(-c3cc(C(O)c4ccc5ccccc5n4)on3)ccc2c(=O)n1-c1ccc(F)cc1` (stereo not shown) [Example 25G], for which the Ki (read-out: Ki) was not above 10 nM.
`O=C(O)CCCCc1nc2cc(-c3ccon3)ccc2c(=O)n1-c1ccc(F)cc1` [Example 5K]: the Ki (read-out: Ki) is 10 to 50 nM.
With `O=C(O)CCCCc1nc2cc(C3=NOC4(CC[C@@H](c5ccccc5)C4)C3)ccc2c(=O)n1-c1ccc(F)cc1` (single isomer, unassigned) [Example 141], the Ki (read-out: Ki) was not above 10 nM.
Regarding `CCC1(c2ccccc2)CC(c2ccc3c(=O)n(-c4ccc(F)cc4)c(CCCCC(=O)O)nc3c2)=NO1` (stereo not shown) [Example 41], the Ki (read-out: Ki) is not above 10 nM.
The same measure, in the same setting: the value for `O=C(O)CCCCc1nc2cc(-c3cc(COCc4cccc(F)c4)on3)ccc2c(=O)n1-c1ccc(F)cc1` [Example 276] was not above 10 nM; that for `CC1(c2nc3cc(Cl)ccc3o2)CC(c2ccc3c(=O)n(-c4ccc(F)cc4)c(CCCCC(=O)O)nc3c2)=NO1` (stereo not shown) [Example 159] was not above 10 nM.
